Our source for the IC50 values is US12435060B2, “Acylamino bridged heterocyclic compound, and composition and application thereof” (BEIJING SCITECH-MQ PHARMACEUTICALS LIMITED, priority 2019, dated 2025).

The experiment concerns HT29 cells. In words: Inhibition of cell necrosis (CCK8 method), induced programmed necrosis of HT29 cells. The experiment is classed as cell-based. The note with it: Homo sapiens, HT-29; rescue from necrosis induced by TNF-α 20 ng/mL, AT-406 1 μM, Z-VAD-FMK 20 μM; 16-20 hours; CCK-8, OD 450 nm. Put shortly: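 HT29 cells in McCOY's 5A with 10% FBS were pre-treated for 30 min with compound (9 fourfold steps, 25000 to 0.38 nM final, 0.25% DMSO). Necrosis was then induced with TNF-α 20 ng/mL, AT-406 1 μM and Z-VAD-FMK 20 μM for 16-20 h. Viability was read by CCK-8 OD450, normalized between uninduced and induced wells, and IC50 was curve-fitted.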
One may read the IC50 as the concentration needed to halve the response being measured. A high value points to weaker potency in that assay. Molecule `CCC(O)(CC)CCCOc1ccc(F)c(-c2cc(NC(=O)c3nnc(Cc4ccccc4F)[nH]3)ncc2Cl)c1` [Example 323, N-(5-chloro-4-(5-((4-ethyl-4-hydroxyhexyl)oxy)-2-fluorophenyl)pyridin-2-yl)-5-(2-fluorobenzyl)-4H-1,2,4-triazole-3-carboxamide] returned an IC50 of 100 to 1000 nM.
Consider `Cc1ccc(OCCCC(C)(C)O)cc1-c1ccnc(NC(=O)c2nnc(CC3CCCC3)[nH]2)c1` [Example 173, 5-(cyclopentylmethyl)-N-(4-(5-((4-hydroxy-4-methylpentyl)oxy)-2-methylphenyl)pyridin-2-yl)-4H-1,2,4-triazole-3-carboxamide], for which the concentration for half-maximal inhibition (IC50) was ≤ 100 nM.
Turning to `O=C(Nc1cc(-c2cc(OCC3CCOCC3)ccc2Cl)c(F)cn1)c1nnc(CC2CCCCC2)[nH]1` [Example 423, N-(4-(2-chloro-5-((tetrahydro-2H-pyran-4-yl)methoxy)phenyl)-5-fluoropyridin-2-yl)-5-(cyclohexylmethyl)-4H-1,2,4-triazole-3-carboxamide], the concentration for half-maximal inhibition (IC50) is ≤ 100 nM.
With `O=C(Nc1cc(-c2cc(OCC3CCOCC3)ccc2Cl)ccn1)c1nnc(Cc2ccccc2F)[nH]1` [Example 400, 5-(2-fluorobenzyl)-N-(4-(2-chloro-5-((tetrahydro-2H-pyran-4-yl)methoxy)phenyl)pyridin-2-yl)-4H-1,2,4-triazole-3-carboxamide], the IC50 is ≤ 100 nM.
In the case of `O=C(Nc1cc(-c2cc(OCCC3CCOCC3)ccc2F)ccn1)c1nnc(Cc2ccccc2F)[nH]1` [Example 316, N-(4-(2-fluoro-5-(2-(tetrahydro-2H-pyran-4-yl)ethoxy)phenyl)pyridin-2-yl)-5-(2-fluorobenzyl)-4H-1,2,4-triazole-3-carboxamide] it was 100 to 1000 nM; in that of `COc1cnccc1-c1ccnc(NC(=O)c2nnc(Cc3ccccc3)[nH]2)c1` [Example 25, 5-benzyl-N-(3′-methoxy-[4,4′-bipyridin]-2-yl)-4H-1,2,4-triazole-3-carboxamide], 1000 to 10000 nM.
`Cc1ccc(OCCCCCO)cc1-c1ccnc(NC(=O)c2nnc(Cc3ccccc3)[nH]2)c1` [Example 153, 5-benzyl-N-(4-(5-((5-hydroxylpentyl)oxy)-2-methylphenyl)pyridin-2-yl)-4H-1,2,4-triazole-3-carboxamide]: the IC50 was ≤ 100 nM.
For the molecule `Cc1ccc(OCCC2CCOCC2)cc1-c1cc(NC(=O)c2nnc(CC3CCCCC3)[nH]2)ncc1Cl` [Example 252, N-(5-chloro-4-(2-methyl-5-(2-(tetrahydro-2H-pyran-4-yl)ethoxy)phenyl)pyridin-2-yl)-5-(cyclohexylmethyl)-4H-1,2,4-triazole-3-carboxamide], the 50% inhibitory concentration (IC50) was ≤ 100 nM.
Consider `Cc1ccc(OCCCC(C)(C)O)cc1-c1cc(NC(=O)c2nnc(Cc3cc(F)cc(F)c3)[nH]2)ncn1` [Example 437, 5-(3,5-difluorobenzyl)-N-(6-(5-((4-hydroxy-4-methylpentyl)oxy)-2-methylphenyl)pyrimidin-4-yl)-4H-1,2,4-triazole-3-carboxamide], for which the IC50 was 100 to 1000 nM.
Take `CC(C)(O)CCCOc1ccc(F)c(-c2ccnc(NC(=O)c3nnc(Cc4ccccc4F)[nH]3)c2)c1` [Example 313, 5-(2-fluorobenzyl)-N-(4-(2-fluoro-5-((4-hydroxy-4-methylpentyl)oxy)phenyl)pyridin-2-yl)-4H-1,2,4-triazole-3-carboxamide]: the half-inhibitory concentration (IC50) was in the range of 100 to 1000 nM.
For `CC(C)Oc1ccc(Cl)c(-c2cncc(NC(=O)c3nnc(Cc4ccccc4)[nH]3)c2)c1` [Example 110, 5-benzyl-N-(5-(2-chloro-5-isopropoxyphenyl)pyridin-3-yl)-4H-1,2,4-triazole-3-carboxamide], the half-maximal inhibitory concentration (IC50) was > 10000 nM.
With `Cc1c(F)cc(OCCCC(C)(C)O)cc1-c1ccnc(NC(=O)c2nnc(Cc3ccccc3)[nH]2)c1` [Example 235, 5-benzyl-N-(4-(3-fluoro-5-((4-hydroxy-4-methylpentyl)oxy)-2-methylphenyl)pyridin-2-yl)-4H-1,2,4-triazole-3-carboxamide], the IC50 is ≤ 100 nM.
In turn, `O=C(Nc1cc(-c2cc(OCC3CCOCC3)ccc2F)ccn1)c1nnc(Cc2ccccc2F)[nH]1` [Example 315, 5-(2-fluorobenzyl)-N-(4-(2-fluoro-5-((tetrahydro-2H-pyran-4-yl)methoxy)phenyl)pyridin-2-yl)-4H-1,2,4-triazole-3-carboxamide] displayed a half-inhibitory concentration (IC50) of 100 to 1000 nM.
`Cc1ccc(S(C)(=O)=O)cc1-c1ccnc(NC(=O)c2nnc(Cc3ccccc3)[nH]2)c1` [Example 37, 5-benzyl-N-(4-(2-methyl-5-(methylsulfonyl)phenyl)pyridin-2-yl)-4H-1,2,4-triazole-3-carboxamide] showed an IC50 of 100 to 1000 nM.
As to `CCC(O)(CC)CCCOc1ccc(Cl)c(-c2ccnc(NC(=O)c3nnc(CC4CCCCC4)[nH]3)c2)c1` [Example 362, N-(4-(2-chloro-5-((4-ethyl-4-hydroxyhexyl)oxy)phenyl)pyridin-2-yl)-5-(cyclohexylmethyl)-4H-1,2,4-triazole-3-carboxamide], the IC50 is ≤ 100 nM.
For the molecule `CC(C)(O)CCCCOc1ccc(C(F)(F)F)c(-c2ccnc(NC(=O)c3nnc(CC4CCCC4)[nH]3)c2)c1` [Example 270, 5-(cyclopentylmethyl)-N-(4-(5-((5-hydroxyl-5-methylhexyl)oxy)-2-(trifluoromethyl)phenyl)pyridin-2-yl)-4H-1,2,4-triazole-3-carboxamide], the concentration for half-maximal inhibition (IC50) was ≤ 100 nM.
Consider `CC(C)(O)CCCOc1ccc(Cl)c(-c2ccnc(NC(=O)c3nnc(CC4CCCC4)[nH]3)c2)c1` [Example 356, N-(4-(2-chloro-5-((4-hydroxy-4-methylpentyl)oxy)phenyl)pyridin-2-yl)-5-(cyclopentylmethyl)-4H-1,2,4-triazole-3-carboxamide], for which the IC50 was ≤ 100 nM.
In the case of `O=C(Nc1cc(-c2cccc3c2OCO3)ccn1)c1nnc(Cc2ccccc2)[nH]1` [Example 41, N-(4-(benzo[d][1,3]dioxol-4-yl)pyridin-2-yl)-5-benzyl-4H-1,2,4-triazole-3-carboxamide] it was > 10000 nM; in that of `Cc1ccc(OCCCC(C)(C)O)cc1-c1ccnc(NC(=O)c2nnc(Cc3ccccn3)[nH]2)c1` [Example 219, N-(4-(5-((4-hydroxy-4-methylpentyl)oxy)-2-methylphenyl)pyridin-2-yl)-5-(pyridin-2-ylmethyl)-4H-1,2,4-triazole-3-carboxamide], ≤ 100 nM.
For `Cc1ccc(OCCC2CCOCC2)cc1-c1ccnc(NC(=O)c2nnc(Cc3ccccc3F)[nH]2)c1` [Example 226, 5-(2-fluorobenzyl)-N-(4-(2-methyl-5-(2-(tetrahydro-2H-pyran-4-yl)ethoxy)phenyl)pyridin-2-yl)-4H-1,2,4-triazole-3-carboxamide], the IC50 is ≤ 100 nM.
The molecule `O=C(Nc1cc(-c2ccccc2)ccn1)c1nnc(Cc2ccccc2)[nH]1` [Example 1, 5-benzyl-N-(4-phenylpyridin-2-yl)-4H-1,2,4-triazole-3-carboxamide] had an IC50 of 1000 to 10000 nM.
Regarding `CC(C)(O)CCCOc1ccc(Cl)c(-c2ccnc(NC(=O)c3nnc(Cc4cc(F)c(F)cc4F)[nH]3)c2)c1` [Example 355, N-(4-(2-chloro-5-((4-hydroxy-4-methylpentyl)oxy)phenyl)pyridin-2-yl)-5-(2,4,5-trifluorobenzyl)-4H-1,2,4-triazole-3-carboxamide], the concentration for half-maximal inhibition (IC50) is 100 to 1000 nM.
